Assays:
[1] = organism: Ovis aries; assay: Inhibition of COX in sheep seminal vesicle microsome assessed as reduction in PGE2 concentration at 6.5 uM relative to control; assay type: microsomes
[2] = organism: Sus scrofa; assay: Inhibition of 5-LO from pig leukocytes at 5 uM
[3] = organism: Ovis aries; assay: Inhibition of COX in sheep seminal vesicle microsome assessed as reduction in PGE2 concentration at 13 uM relative to control; assay type: microsomes

| Compound | inhibition [1] | inhibition [2] | inhibition [3] |
| --- | --- | --- | --- |
| CCCC/C=C\C#CC#CCCCCCC(=O)O | 36% | 45% | 51% |
| CCCCCC#CC#CC#CCCCCCCC(=O)O | 33% | 21% | 45% |
| CCCCC/C=C\CC#CC#CCCCCCC(=O)O | 40% | 55% | 56% |

Second part, the molecule after the results:

| inhibition [1] | inhibition [2] | inhibition [3] | Compound |
| --- | --- | --- | --- |
| 36% | 18% | 55% | CCCCC#CC#CC#CCCCCC(=O)O |
| 44% | 14% | 56% | CCCC/C=C/C#CC#CCCCCC(=O)O |
